Values quoted from earlier work, collected in patent US6759200B1, “Thymidine phosphorylase gene sequence variances having utility in determining the treatment of disease” (Nuvelo, Inc., priority 1998, dated 2004).
Counter-ions that a name gives are not always drawn. Like-named read-outs stand apart in the source and are kept apart here.

Tests used:
Alzheimer's disease = settings: PDR
[1] = up to; depending on the regimen
[2] = test system: advanced colorectal cancer
[3] = molecular target: T1, dihydropyrimidine dehydrogenase (DPD) (Homo sapiens, UniProt Q12882)
T1 construct: host or cells: human subjects in vivo (endogenous enzyme)
T1 sequence (Q12882 4-1025): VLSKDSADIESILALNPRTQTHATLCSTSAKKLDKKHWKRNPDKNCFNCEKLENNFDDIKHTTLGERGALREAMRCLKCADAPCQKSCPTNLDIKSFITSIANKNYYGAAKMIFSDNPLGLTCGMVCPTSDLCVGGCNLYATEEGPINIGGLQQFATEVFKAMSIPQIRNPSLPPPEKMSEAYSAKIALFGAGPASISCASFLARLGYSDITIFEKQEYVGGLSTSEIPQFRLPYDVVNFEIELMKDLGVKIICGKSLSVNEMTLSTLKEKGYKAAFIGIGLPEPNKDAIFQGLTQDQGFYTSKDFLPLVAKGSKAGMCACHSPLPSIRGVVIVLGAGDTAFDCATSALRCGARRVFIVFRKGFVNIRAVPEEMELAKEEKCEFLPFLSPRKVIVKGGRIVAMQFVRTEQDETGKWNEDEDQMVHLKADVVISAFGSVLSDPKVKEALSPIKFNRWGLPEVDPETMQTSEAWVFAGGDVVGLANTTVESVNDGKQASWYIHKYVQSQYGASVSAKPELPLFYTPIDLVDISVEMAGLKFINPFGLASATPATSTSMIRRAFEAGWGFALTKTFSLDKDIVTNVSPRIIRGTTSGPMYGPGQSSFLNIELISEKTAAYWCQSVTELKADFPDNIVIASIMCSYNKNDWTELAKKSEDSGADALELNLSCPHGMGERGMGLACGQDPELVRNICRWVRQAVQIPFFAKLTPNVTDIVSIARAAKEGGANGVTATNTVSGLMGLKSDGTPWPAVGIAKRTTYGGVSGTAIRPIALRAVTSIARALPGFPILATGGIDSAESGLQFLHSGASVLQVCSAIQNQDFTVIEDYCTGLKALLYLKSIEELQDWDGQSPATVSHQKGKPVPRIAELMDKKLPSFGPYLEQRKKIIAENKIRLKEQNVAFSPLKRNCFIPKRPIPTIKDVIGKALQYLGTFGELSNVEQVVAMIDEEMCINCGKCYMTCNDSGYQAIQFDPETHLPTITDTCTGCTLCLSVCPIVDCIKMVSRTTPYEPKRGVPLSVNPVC

nucleoside transport = nucleoside transport inhibitor paired with 5-FU and FA; Kohne et al. 1995
[4] = Alzheimer's patients receiving Cognex
[5] = people genetically deficient in DPD, Diasio et al. 1988

O=c1ccn([C@@H]2O[C@H](COP(=O)(O)OP(=O)(O)OP(=O)(O)O)[C@@H](O)[C@H]2O)c(=O)[nH]1 [Uridine triphosphate]
release of thromboxane A2 (cultured glial cells): concentration-dependent increases

Nc1c2c(nc3ccccc13)CCCC2 [Cognex, tacrine hydrochloride]
patients showing no change or minimal worsening of their disease (Alzheimer's disease; Alzheimer's disease patients receiving Cognex): about 45%
patients minimally improved (Alzheimer's disease; [4]): About 58%
patients much improved (Alzheimer's disease; [4]): about 2%

O=c1[nH]cc(F)c(=O)[nH]1 [5-FU, 5-fluorouracil]
patients suffering serious gastrointestinal or hematopoietic toxicity [1]: 20-30%
partial remissions ([2]; 5-FU alone, advanced colorectal cancers): 10-30%
patients with an objective response ([2]; advanced colorectal cancer): 20-40%
patients with a complete response (complete tumor disappearance) ([2]; advanced colorectal cancer, of the objective responders): 1-5%
dose excreted unchanged in the urine (normal individuals): 10%
elimination half life (normal individuals): 0.167 to 0.25 h
dose excreted unchanged in the urine [5]: 90%
elimination half life [5]: 2.5 h
dose of 5-FU transformed (catabolized) by DPD to the inactive dihydrofluorouracil form ([3]; in vivo): more than 80%
injected dose rapidly inactivated by DPD to therapeutically inactive catabolic products ([3]; injected dose): More than 85%

Nc1ccn([C@@H]2O[C@H](COP(=O)(O)OP(=O)(O)OP(=O)(O)O)[C@@H](O)[C@H]2O)c(=O)n1 [cytidine triphosphate]
release of thromboxane A2 (cultured glial cells): concentration-dependent increases

O=c1ccn([C@@H]2O[C@H](COP(=O)(O)OP(=O)(O)O)[C@@H](O)[C@H]2O)c(=O)[nH]1 [uridine diphosphate]
release of thromboxane A2 (cultured glial cells): concentration-dependent increases

OCCN(CCO)c1nc(N2CCCCC2)c2nc(N(CCO)CCO)nc(N3CCCCC3)c2n1 [dipyridamole]
outcome compared to 5-FU/FA alone (nucleoside transport): failed to show a difference in outcome

Cc1cn([C@H]2C[C@H](O)[C@@H](COP(=O)(O)OP(=O)(O)OP(=O)(O)O)O2)c(=O)[nH]c1=O [deoxythymidine triphosphate]
release of thromboxane A2 (cultured glial cells): concentration-dependent increases
